Test system: A2780 (human ovarian cancer)
Test: Antiproliferative activity against drug-sensitive human A2780 cells

SMILES	IC50 [µM]
CC(C)=CCc1c(O)cc(/C=C/c2cc(O)c3c(c2)C[C@@H]2C(C)(C)[C@H](O)[C@H](O)C[C@@]2(C)O3)cc1O [VEDELIANIN]	0.13
CC(C)=CCC/C(C)=C/Cc1c(O)cc2c(c1O)C(=O)[C@H](O)[C@@H](c1ccc(O)c(O)c1)O2 [DIPLACOL]	11.5
CC(C)=CCC/C(C)=C/Cc1c(O)cc2c(c1O)C(=O)C[C@@H](c1ccc(O)c(O)c1)O2 [NYMPHAEOL A]	10.5
COc1cc(/C=C/c2cc(O)c(CC=C(C)C)c(O)c2)cc2c1O[C@]1(C)CC[C@@H](O)C(C)(C)[C@H]1C2 [SCHWEINFURTHIN F]	5
CC(C)=CCC/C(C)=C/Cc1c(O)cc2c(c1O)C(=O)[C@H](O)[C@@H](c1ccc(O)cc1)O2 [BONANNIOL A]	23.5

Source: ChEMBL document CHEMBL1142962, “Antiproliferative prenylated stilbenes and flavonoids from Macaranga alnifolia from the Madagascar rainforest” (J Nat Prod, 2007)
